Active and inactive are the calls of the source.
Columns and labels:
[1] = target: T1, Progesterone receptor (Homo sapiens) (UniProt P06401); experiment: Agonist efficacy for human progesterone receptor in T47D human breast cancer cell; not active (<20% efficacy and/or >10 mM potency); assay type: functional, cell-based
T1 sequence (whole entry): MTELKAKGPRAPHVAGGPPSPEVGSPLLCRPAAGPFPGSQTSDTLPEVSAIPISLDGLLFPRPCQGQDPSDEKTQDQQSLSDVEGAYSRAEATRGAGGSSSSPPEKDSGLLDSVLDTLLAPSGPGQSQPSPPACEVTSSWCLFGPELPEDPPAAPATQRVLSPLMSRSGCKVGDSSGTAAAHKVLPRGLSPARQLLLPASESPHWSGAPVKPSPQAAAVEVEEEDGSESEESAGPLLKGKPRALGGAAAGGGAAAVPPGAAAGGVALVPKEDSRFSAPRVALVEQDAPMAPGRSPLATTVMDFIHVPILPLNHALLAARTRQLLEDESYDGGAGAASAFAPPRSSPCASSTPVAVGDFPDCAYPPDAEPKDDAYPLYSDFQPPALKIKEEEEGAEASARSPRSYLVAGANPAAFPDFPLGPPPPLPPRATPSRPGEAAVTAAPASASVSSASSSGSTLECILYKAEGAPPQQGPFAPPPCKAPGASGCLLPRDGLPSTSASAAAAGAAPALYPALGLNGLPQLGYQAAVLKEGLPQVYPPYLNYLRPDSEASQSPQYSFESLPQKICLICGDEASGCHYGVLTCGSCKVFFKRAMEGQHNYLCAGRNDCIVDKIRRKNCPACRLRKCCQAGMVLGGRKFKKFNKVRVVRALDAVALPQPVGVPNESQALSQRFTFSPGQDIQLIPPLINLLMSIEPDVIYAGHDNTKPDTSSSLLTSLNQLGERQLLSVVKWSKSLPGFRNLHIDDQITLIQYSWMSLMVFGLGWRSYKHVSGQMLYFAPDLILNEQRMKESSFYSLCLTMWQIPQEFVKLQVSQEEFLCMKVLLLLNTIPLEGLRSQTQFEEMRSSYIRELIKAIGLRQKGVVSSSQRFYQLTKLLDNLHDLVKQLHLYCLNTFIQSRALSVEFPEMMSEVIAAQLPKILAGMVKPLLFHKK

[2] = target: T2, Progesterone receptor (Homo sapiens, UniProt P06401)
T2 sequence (P06401 whole entry): T1 sequence (whole entry)
Description: Antagonistic activity at human progesterone receptor in CV-1 cells.

[3] = target: T2, Progesterone receptor; experiment: Effective concentration for human progesterone in T47D human breast cancer cell; not active (<20% efficacy and/or >10 mM potency); assay type: cell-based; conditions: cancer cell lines
[4] = target: T2, Progesterone receptor; remark: listed apart in the source
Description: Inhibition of human progesterone receptor activation in T47D human breast cancer cell.

[5] = target: T2, Progesterone receptor; experiment: Binding towards human progesterone receptor; Not tested
[6] = target: T2, Progesterone receptor; experiment: Effective concentration for antagonistic activity towards human progesterone receptor in CV-1 cells; not active (<20% efficacy and/or >10 mM potency); assay type: functional, cell-based
[7] = target: T2, Progesterone receptor; experiment: Effective concentration for human progesterone receptor in T47D human breast cancer cell; not active (<20% efficacy and/or >10 mM potency); conditions: cancer cell lines
[8] = target: T2, Progesterone receptor; remark: listed apart in the source
Description: Binding affinity at human progesterone receptor.

[9] = target: T1, Progesterone receptor (Homo sapiens); experiment: Antagonist efficacy for human progesterone receptor in CV-1 cells; not active (<20% efficacy and/or >10 mM potency); assay type: functional, cell-based
[10] = target: T2, Progesterone receptor; experiment: Inhibition of human progesterone receptor in T47D human breast cancer cell; not active (<20% efficacy and/or >10 mM potency); assay type: cell-based

| Structure (SMILES) | Efficacy [1] | EC50 [2] [nM] | EC50 [3] | IC50 [4] [nM] | Ki [5] [nM] | EC50 [6] | EC50 [7] | Ki [8] [nM] | Efficacy [9] | IC50 [10] |
| --- | --- | --- | --- | --- | --- | --- | --- | --- | --- | --- |
| CC1=CC(C)(C)Nc2ccc3c(c21)COc1c(Cl)cccc1-3 | inactive | 576 | Not Active | 782 |  |  |  |  |  |  |
| CC1=CC(C)(C)Nc2ccc3c(c21)COc1c-3cc(Br)c(C=O)c1F |  | 576 |  |  | 290 |  |  |  |  |  |
| CC1=CC(C)(C)Nc2ccc3c(c21)COc1cc(C(F)(F)F)ccc1-3 | inactive |  |  |  |  | Not Active | Not Active | > 1000 | inactive | Not Active |

From ChEMBL document CHEMBL1144945, “Development of progesterone receptor antagonists from 1,2-dihydrochromeno[3,4-f]quinoline agonist pharmacophore” (Bioorg Med Chem Lett, 2003)
